# Test results published in patent publication US10807960B2, “Compounds, compositions, and methods for controlling biofilms” (KATHOLIEKE UNIVERSITEIT LEUVEN, priority 2015, dated 2020).
# Like-named read-outs stand apart in the source and are kept apart here. Marks after values point to notes of the source that are not given here.
# Key:
# [1] = tested on: C. albicans SC5314 + S. aureus SH1000; assay: mixed C. albicans/S. aureus biofilm assay, selective plating; assay type: cell-based, Candida albicans; Staphylococcus aureus; settings: 37° C.; for CFUs % survival S.a.: S. aureus in mixed biofilm with C. albicans
# Method: Overnight cultures of C. albicans SC5314 (YPD, 30° C.) and S. aureus SH1000 (LB, 37° C.) were washed with PBS, after which they were diluted in RPMI medium to obtain cell suspensions of 10^6 cells/ml for fungal cells and 10^8 cells/ml for bacteria. Equal volumes of these cell suspensions were mixed, and 100 μl of this mixed cell suspension together with compound was added to the wells of a microtiter plate in triplicate. The concentrations 25 μM (0.0625% DMSO or ethanol) and 100 μM (0.25% DMSO or ethanol) were tested. The plates were incubated at 37° C. for 90 min. After incubation the wells were washed twice with PBS, and 200 μl of the fresh RPMI medium with or without compounds was added in triplicate to the wells. After 24 h incubation at 37° C. the medium was removed and the biofilm was washed with PBS. Next, the cells were re-suspended in 100 μl of PBS by scraping off, sonication (1 min, 45 kHz, USC300-T; VWR, Radnor, Pa., USA) and vigorously pipetting up-and-down. Finally, dilution series were made, and quantification of S. aureus SH1000 and C. albicans SC5314 populations was performed using selective plating on TSA plates containing 25 mg/L amphotericin B and YPD plates containing 100 μg/ml tetracycline, respectively. The percentage of C. albicans SC5314 and S. aureus SH1000 cells was determined relative to the DMSO or ethanol control treatment.
# S. aureus SH1000 = assay: static peg (Calgary Biofilm Device) anti-biofilm assay, crystal violet and OD600; settings: 37° C.
# S. epidermidis = assay: as above; settings: 37° C.
# P. gingivalis ATCC33277 = assay: as above; settings: 37° C.
# E. coli TG1 = assay: as above; settings: 37° C.
# P. aeruginosa PA14 = assay: as above
# [2] = tested on: C. albicans SC5314 + S. epidermidis; assay: mixed C. albicans/S. epidermidis biofilm assay, selective plating; assay type: cell-based, Candida albicans; Staphylococcus epidermidis; settings: for CFUs % survival C.a.: C. albicans in mixed biofilm with S. epidermidis; for CFUs % survival C.a. / CFUs % survival S.e.: 37° C.; for CFUs % survival S.e.: S. epidermidis in mixed biofilm with C. albicans
# Method: The concentrations 25 μM (0.0625% DMSO or ethanol) and 100 μM (0.25% DMSO or ethanol) were tested. After 24 h of incubation at 37° C., biofilms were washed with PBS and fresh medium with or without compounds was added. After further incubation for 48 h at 37° C., the biofilms were washed with PBS after which the cells were re-suspended in 100 μl of PBS by scraping off, sonication (1 min, 45 kHz, USC300-T; VWR, Radnor, Pa., USA) and vigorously pipetting up-and-down. Finally, the biofilm cells were diluted in PBS and plated on YPD agar plates containing 100 mg/L ampicillin and TSA plates containing 25 mg/L amphotericin B, to determine the number of fungal and bacterial CFUs after 2 days of incubation at 37° C., respectively. The percentage of C. albicans SC5314 and S. epidermidis cells was determined relative to the DMSO or ethanol control treatment.
# S. aureus ATCC6538 = assay: static peg (Calgary Biofilm Device) anti-biofilm assay, crystal violet and OD600; settings: 37° C.
# [3] = tested on: E. coli TG1 + P. aeruginosa PA14; assay: mixed E. coli/P. aeruginosa biofilm assay, crystal violet; assay type: cell-based; settings: 37° C. (Table 3)
# Method: Overnight cultures of E. coli TG1 and P. aeruginosa PA14, were diluted 1/100 in the same vial of TSB 1/20 to form a mixed culture suspension.
# S. liquefaciens MG44 = assay: static peg (Calgary Biofilm Device) anti-biofilm assay, crystal violet and OD600; assay type: cell-based, Serratia liquefaciens
# [4] = tested on: S. aureus ATCC6538 + S. epidermidis; assay: mixed S. aureus/S. epidermidis biofilm assay, crystal violet; assay type: cell-based; settings: 37° C. (Table 3)
# Method: Overnight cultures of S. aureus ATCC6538 and S. epidermidis were grown in LB medium and were diluted 1/200 in the same vial of TSB to form a mixed culture suspension.
# C. albicans SC5314 = assay: inhibition of C. albicans biofilms, cell titer blue (CTB) quantification; assay type: cell-based, Candida albicans; settings: biofilm formation, read-out: BIC50
# Method: The potential of the compounds to prevent C. albicans SC5314 biofilm formation was assessed using the cell titer blue (CTB) quantification method (26). For the CTB method, an overnight culture of C. albicans SC5314 was washed with PBS and a cell suspension of 10^6 cells/ml (OD600=0.1) was prepared in RPMI 1640 medium (pH 7.0). […] After 16 h of static incubation at 37° C., biofilms were washed and quantified with CTB as described previously.
# S. Typhimurium ATCC14028 = assay: static peg (Calgary Biofilm Device) anti-biofilm assay, crystal violet and OD600; settings: read-out: BIC50; biofilm formation, 25° C.
# [5] = C. albicans in mixed biofilm with S. aureus SH1000, 25 μM
# [6] = C. albicans in mixed biofilm with S. aureus SH1000, 100 μM
# [7] = read-out: BIC50, biofilm formation
# [8] = read-out: BIC50, biofilm formation, 25° C.
# [9] = read-out: BIC50, biofilm formation, 37° C.
# [10] = mixed biofilm formation, read-out: BIC50
# [11] = planktonic growth of mixed culture, read-out: IC50
# [12] = biofilm formation, 25° C., read-out: BIC50
# [13] = planktonic growth, 25° C., read-out: IC50
SMILES,"CFUs % survival C.a. [1, 5]","CFUs % survival C.a. [1, 6]",CFUs % survival S.a. ([1]; 25 μM),CFUs % survival S.a. ([1]; 100 μM),IC50 (S. aureus SH1000; planktonic growth),IC50 (S. aureus SH1000; [7]),IC50 (S. epidermidis; planktonic growth),IC50 (S. epidermidis; [7]),IC50 (P. gingivalis ATCC33277; planktonic growth),IC50 (P. gingivalis ATCC33277; [7]),IC50 (E. coli TG1; planktonic growth),IC50 (E. coli TG1; [7]),"IC50 (P. aeruginosa PA14; planktonic growth, 37° C.)",IC50 (P. aeruginosa PA14; [8]),IC50 (P. aeruginosa PA14; [9]),CFUs % survival C.a. ([2]; 25 μM),CFUs % survival C.a. ([2]; 100 μM),CFUs % survival S.e. ([2]; 25 μM),CFUs % survival S.e. ([2]; 100 μM),IC50 (S. aureus ATCC6538; planktonic growth),further results
CCCCCCCCn1c(-c2ccc(Cl)cc2)cnc1N [Compound 2],183.8%,0.9* %,87.7%,0.2* %,8.3 µM,3.4 µM,~11.1 µM,~5.6 µM,6 µM,3.9 µM,7.7 µM,~6.5 µM,10 µM,4 µM,118 µM,<0.6* %,<0.2* %,0.0* %,0.0* %,7.8 µM,"biofilm formation of C. albicans/S. epidermidis (in words) ([2]; 25 μM): completely inhibited; IC50 (S. aureus ATCC6538; [7]): 2.8 µM; IC50 [3, 10]: 36.8 µM; IC50 [3, 11]: 19.9 µM; IC50 (S. liquefaciens MG44; biofilm formation, read-out: BIC50): 18.8 µM; IC50 (S. liquefaciens MG44; planktonic growth, read-out: IC50): 38 µM; IC50 [4, 10]: ~7.2 µM; IC50 [4, 11]: ~9.9 µM; IC50 (C. albicans SC5314): 6.2 µM; IC50 (S. Typhimurium ATCC14028): ~5.9 µM"
CC(C)CNc1ncc(-c2ccc(Cl)cc2)[nH]1 [Compound 3],165.7%,141.3%,124.6%,51.8* %,~175 µM,~200 µM,86.2 µM,> 400 µM,5.1 µM,5.3 µM,30 µM,110 µM,> 400 µM,0.9 µM,> 400 µM,58.3* %,235.1%,64.6* %,13.2* %,~96.1 µM,"IC50 (S. aureus ATCC6538; [7]): 95.3 µM; IC50 [3, 10]: 7.4 µM; IC50 [3, 11]: > 400 µM; IC50 (S. liquefaciens MG44; [12]): 10.4 µM; IC50 (S. liquefaciens MG44; [13]): 154 µM; IC50 [4, 10]: ~26.3 µM; IC50 [4, 11]: ~140 µM; IC50 (C. albicans SC5314; 37° C.): 93.9 µM; IC50 (S. Typhimurium ATCC14028): 2 µM"
Clc1ccc(-c2cnc(NC3CCCC3)[nH]2)cc1 [Compound 5],232.4%,120.6%,75.4%,74.5* %,71.5 µM,70.6 µM,39.5 µM,> 400 µM,4 µM,5.7 µM,17.1 µM,~45.7 µM,> 400 µM,13.5 µM,> 400 µM,167.9%,594.7%,72.0%,2.3* %,62.3 µM,"activity against S. epidermidis in the C. albicans/S. epidermidis biofilm (in words) ([2]; 100 μM): complete inhibition; IC50 (S. aureus ATCC6538; [7]): 34.4 µM; IC50 [3, 10]: 0.5 µM; IC50 [3, 11]: > 400 µM; IC50 (S. liquefaciens MG44; [12]): 8.8 µM; IC50 (S. liquefaciens MG44; [13]): 125 µM; IC50 [4, 10]: ~66.6 µM; IC50 [4, 11]: ~91.7 µM; IC50 (C. albicans SC5314; 37° C.): 64 µM; IC50 (S. Typhimurium ATCC14028): 4.4 µM"
